In US20240166624A1, “PPARG INVERSE AGONISTS AND USES THEREOF” (Flare Therapeutics Inc., priority 2021, published 2024):

Legend:
[1] = target: T1, PPARG/RXRA LBD heterodimer (Homo sapiens, UniProt P37231); assay: PPARγ-MED1 blockade assay (TR-FRET, biotinylated MED1 LxxLL peptide); type: biochemical; settings: WT PPARG LBD/WT RXRA LBD, 80 nM Rosiglitazone, 3 hours
T1 construct: His-TEV-Q203-Y477; Uniprot ID P37231-2; made in house; host or cells: E. coli
T1 sequence (P37231 203-477 isoform P37231-2): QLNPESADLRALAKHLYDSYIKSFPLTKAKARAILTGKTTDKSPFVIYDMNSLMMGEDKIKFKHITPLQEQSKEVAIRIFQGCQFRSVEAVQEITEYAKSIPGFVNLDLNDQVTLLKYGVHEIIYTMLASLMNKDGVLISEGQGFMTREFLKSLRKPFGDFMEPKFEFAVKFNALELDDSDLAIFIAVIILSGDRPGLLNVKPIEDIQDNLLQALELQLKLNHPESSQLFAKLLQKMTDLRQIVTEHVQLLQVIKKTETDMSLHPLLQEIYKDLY
T1 sequence (P19793 228-462 partner limits assumed): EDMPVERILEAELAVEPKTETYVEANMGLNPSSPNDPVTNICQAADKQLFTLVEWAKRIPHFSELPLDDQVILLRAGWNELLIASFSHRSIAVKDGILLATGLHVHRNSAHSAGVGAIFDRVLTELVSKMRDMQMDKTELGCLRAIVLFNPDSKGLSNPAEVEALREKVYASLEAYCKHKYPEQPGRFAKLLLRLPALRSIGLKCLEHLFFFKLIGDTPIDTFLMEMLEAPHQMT
Experimental: PPARγ-MED1 Blockade Assay:
Compound potency (IC50) and maximal extent of MED1 repulsion to PPARG were assessed a TR-FRET binding assay measuring association of a biotinylated MED1 LxxLL peptide (Biotin-[…]-amide) to PPARG/RXRA LBD heterodimer. Specifically, a 20 microliters of TR-FRET master mix consisting of 2 nM WT PPARG LBD (E. coli expressed, His-TEV-Q203-Y477; Uniprot ID P37231-2), 2 nM WT RXRA LBD (E. coli expressed, Flag-TEV-E228-T462; […]. Mixtures were incubated for 3 hours and read in an EnVision plate reader (Perkin Elmer) with Ex/Em 615/665. To determine the potency (IC50) and extent of MED1 repulsion, TR-FRET ratios were normalized to the average ratio of DMSO control wells (0%) and to the average minimum ratio for positive control compound (GW9662 (2-chloro-5-nitrobenzanilide); defined as 100%) in CDD Vault and analyzed using the Levenberg-Marquardt algorithm.

[2] = target: T2, PPARG/RXRA LBD heterodimer (Homo sapiens, UniProt P37231); assay: PPARγ-NCOR1 recruitment assay (TR-FRET, biotinylated NCOR1 ID2 peptide); type: biochemical; settings: 80 nM Rosiglitazone, 3 hours, read-out: PPARG-NCOR recruitment assay EC50
T2 construct: His-TEV-Q203-Y477; Uniprot ID P37231-2; made in house; host or cells: E. coli
Experimental: PPARγ-NCOR1 Recruitment Assay:
Compound potency (EC50) and maximal extent of NCOR1 recruitment to PPARG were assessed a TR-FRET binding assay measuring association of a biotinylated NCOR1 ID2 peptide (Biotin-[…]-amide) to PPARG/RXRA LBD heterodimer. Specifically, a 20 microliters of TR-FRET master mix consisting of 2 nM WT PPARG LBD (E. coli expressed, His-TEV-Q203-Y477; Uniprot ID P37231-2), 2 nM WT RXRA LBD or mutant S427F RXRA LBD (E. coli expressed, Flag-TEV-E228-T462; […]. Mixtures were incubated for 3 hours and read in an EnVision plate reader (Perkin Elmer) with Ex/Em 615/665. To determine the potency (EC50) and extent of NCOR1 recruitment, TR-FRET ratios were normalized to the average ratio of DMSO control wells (0%) and to the average maximum ratio for positive control compound (T0070907 (2-chloro-5-nitro-N-4-pyridinyl-benzamide); defined as 100%) in CDD Vault and analyzed using the Levenberg-Marquardt algorithm.
T2 sequence (O75376 2251-2273 partner, one chain of several): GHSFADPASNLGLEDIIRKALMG

[3] = system: ANGPTL4, a PPARG target gene, in HT1197 (RXRA S427F mutation) cells; assay: Bladder cancer pharmacodynamic assay, HT1197 cell assay (qPCR of ANGPTL4); type: cell-based; settings: Homo sapiens, 24 hours, 100 nM compound, relative to DMSO control
Experimental: Bladder Cancer Pharmacodynamic Assay
5637 (PPARG amplified) and HT1197 (RXRA S427F mutation) cells were used for assessment of modulation of PPARG target genes using quantitative PCR. Cells were treated for 24 hours with PPARG inverse agonists prior to analysis of FABP4 (IDT, Cat: Hs.PT 58.20106818) and ANGPTL4 (IDT, Cat: Hs.PT 58.25480012) expression, with expression of the housekeeping gene TBP (IDT, Cat: Hs.PT 58v.39858774) used to normalize expression across samples. Quantitative PCR was performed using an ABI QuantStudio 7 Flex Reaction system. Data were analyzed and reported relative to DMSO control using the comparative Ct method (ΔΔCt).

For `N#Cc1ccc(F)c(-c2cc(=O)c3c(F)cc(F)cc3[nH]2)c1` [Example 3, 3-(5,7-difluoro-4-oxo-1,4-dihydroquinolin-2-yl)-4-fluorobenzonitrile], the EC50 [1] was 1000 to 10000 nM and the EC50 [2] was 1000 to 10000 nM.
In the case of `N#Cc1ccc(Cl)c(-c2cc(=O)c3c(Cl)cc(Cl)cc3[nH]2)c1` [Example 7, 4-chloro-3-(5,7-dichloro-4-oxo-1,4-dihydroquinolin-2-yl)benzonitrile], the EC50 [1] is reported as 100 to 1000 nM, the EC50 [2] is reported as 100 to 1000 nM and the inhibition at 0.1 µM [3] is reported as 90%.
For `N#Cc1ccc(Cl)c(-c2cc(=O)c3cc(F)cc(F)c3[nH]2)c1` [Example 8, 4-chloro-3-(6,8-difluoro-4-oxo-1,4-dihydroquinolin-2-yl)benzonitrile], the EC50 [1] was > 10000 nM and the EC50 [2] was > 10000 nM.
Work on `Cc1cc2[nH]c(-c3cc(C#N)ccc3Cl)cc(=O)c2cc1C#N` [Example 9, 2-(2-chloro-5-cyanophenyl)-7-methyl-4-oxo-1,4-dihydroquinoline-6-carbonitrile] yielded an EC50 [1] of 1000 to 10000 nM and an EC50 [2] of 1000 to 10000 nM.
For `N#Cc1ccc(Cl)c(-c2cc(=O)c3c(F)c(F)ccc3[nH]2)c1` [Example 10, 4-chloro-3-(5,6-difluoro-4-oxo-1,4-dihydroquinolin-2-yl)benzonitrile], the EC50 [1] was 1000 to 10000 nM and the EC50 [2] was > 10000 nM.
With `N#Cc1ccc(Cl)c(-c2cc(=O)c3cc(C#N)c(C(F)(F)F)cc3[nH]2)c1` [Example 12, 2-(2-chloro-5-cyanophenyl)-4-oxo-7-(trifluoromethyl)-1,4-dihydroquinoline-6-carbonitrile] the EC50 [1] was 1000 to 10000 nM and the EC50 [2] was > 10000 nM.
Compound `N#Cc1ccc(Cl)c(-c2cc(=O)c3ccccc3[nH]2)c1` [Example 13, 4-chloro-3-(4-oxo-1,4-dihydroquinolin-2-yl)benzonitrile] has an EC50 [1] of 1000 to 10000 nM, an EC50 [2] of 1000 to 10000 nM and an inhibition at 0.1 µM [3] of 17%.
`O=c1cc(-c2cc([N+](=O)[O-])ccc2Cl)[nH]c2ccccc12` [Example 14, 2-(2-chloro-5-nitrophenyl)quinolin-4(1H)-one] was tested, and the EC50 [1] was < 10 nM, the EC50 [2] was < 10 nM and the inhibition at 0.1 µM [3] was 38%.
`Cc1c(F)cc2[nH]c(-c3cc(C#N)ccc3Cl)cc(=O)c2c1F` [Example 15, 4-chloro-3-(5,7-difluoro-6-methyl-4-oxo-1,4-dihydroquinolin-2-yl)benzonitrile] was tested, and the EC50 [1] was 10 to 100 nM, the EC50 [2] was 100 to 1000 nM and the inhibition at 0.1 µM [3] was 89%.
`N#Cc1ccc(Cl)c(-c2cc(=O)c3c(F)cc(Cl)cc3[nH]2)c1` [Example 16, 4-chloro-3-(7-chloro-5-fluoro-4-oxo-1,4-dihydroquinolin-2-yl)benzonitrile] showed an EC50 [1] of 100 to 1000 nM, an EC50 [2] of 100 to 1000 nM and an inhibition at 0.1 µM [3] of 88%.
`N#Cc1ccc(Cl)c(-c2cc(=O)c3c(F)c(F)c(F)cc3[nH]2)c1` [Example 17, 4-chloro-3-(5,6,7-trifluoro-4-oxo-1,4-dihydroquinolin-2-yl)benzonitrile] gave an EC50 [1] of 1000 to 10000 nM, an EC50 [2] of 1000 to 10000 nM and an inhibition at 0.1 µM [3] of 66%.
Compound `N#Cc1ccc(Cl)c(-c2cc(=O)c3c(Cl)cc(F)cc3[nH]2)c1` [Example 18, 4-chloro-3-(5-chloro-7-fluoro-4-oxo-1,4-dihydroquinolin-2-yl)benzonitrile] has an EC50 [1] of 100 to 1000 nM, an EC50 [2] of 100 to 1000 nM and an inhibition at 0.1 µM [3] of 83%.
Work on `CN1CCN(c2c(F)cc3[nH]c(-c4cc(C#N)ccc4Cl)cc(=O)c3c2F)CC1` [Example 19, 4-chloro-3-(5,7-difluoro-6-(4-methylpiperazin-1-yl)-4-oxo-1,4-dihydroquinolin-2-yl)benzonitrile] yielded an EC50 [1] of 1000 to 10000 nM, an EC50 [2] of 1000 to 10000 nM and an inhibition at 0.1 µM [3] of 75%.
`N#Cc1ccc(Cl)c(-c2cc(=O)c3c(F)c(N4CCN(CC(F)(F)F)CC4)c(F)cc3[nH]2)c1` [Example 20, 4-chloro-3-(5,7-difluoro-4-oxo-6-(4-(2,2,2-trifluoroethyl)piperazin-1-yl)-1,4-dihydroquinolin-2-yl)benzonitrile] showed an EC50 [1] of 100 to 1000 nM, an EC50 [2] of 100 to 1000 nM and an inhibition at 0.1 µM [3] of 91%.
For `COc1cc(F)cc2[nH]c(-c3cc(C#N)ccc3Cl)cc(=O)c12` [Example 21, 4-chloro-3-(7-fluoro-5-methoxy-4-oxo-1,4-dihydroquinolin-2-yl)benzonitrile], the EC50 [1] was 1000 to 10000 nM, the EC50 [2] was 1000 to 10000 nM and the inhibition at 0.1 µM [3] was 87%.
`COc1cc(F)c2c(=O)cc(-c3cc(C#N)ccc3Cl)[nH]c2c1` [Example 22, 4-chloro-3-(5-fluoro-7-methoxy-4-oxo-1,4-dihydroquinolin-2-yl)benzonitrile] was tested, and the EC50 [1] was 100 to 1000 nM, the EC50 [2] was 100 to 1000 nM and the inhibition at 0.1 µM [3] was 29%.
With `N#Cc1ccc(Cl)c(-c2cc(=O)c3c(F)c(-c4ccncc4)c(F)cc3[nH]2)c1` [Example 23, 4-chloro-3-(5,7-difluoro-4-oxo-6-(pyridin-4-yl)-1,4-dihydroquinolin-2-yl)benzonitrile] the EC50 [1] was 100 to 1000 nM, the EC50 [2] was 100 to 1000 nM and the inhibition at 0.1 µM [3] was 55%.
Work on `Cc1c(F)c(F)cc2[nH]c(-c3cc(C#N)ccc3Cl)cc(=O)c12` [Example 24, 4-chloro-3-(6,7-difluoro-5-methyl-4-oxo-1,4-dihydroquinolin-2-yl)benzonitrile] yielded an EC50 [1] of 100 to 1000 nM, an EC50 [2] of 100 to 1000 nM and an inhibition at 0.1 µM [3] of 69%.
In the case of `N#Cc1ccc(Cl)c(-c2cc(=O)c3c(F)c(-n4cccn4)c(F)cc3[nH]2)c1` [Example 25, 4-chloro-3-(5,7-difluoro-4-oxo-6-(1H-pyrazol-1-yl)-1,4-dihydroquinolin-2-yl)benzonitrile], the EC50 [1] is reported as 1000 to 10000 nM, the EC50 [2] is reported as 1000 to 10000 nM and the inhibition at 0.1 µM [3] is reported as 22%.
`CNC(=O)c1c(F)cc2[nH]c(-c3cc(C#N)ccc3Cl)cc(=O)c2c1F` [Example 26, 2-(2-chloro-5-cyanophenyl)-5,7-difluoro-N-methyl-4-oxo-1,4-dihydroquinoline-6-carboxamide] was tested, and the EC50 [1] was 1000 to 10000 nM, the EC50 [2] was > 10000 nM and the inhibition at 0.1 µM [3] was 21%.
`N#Cc1ccc(Cl)c(-c2cc(=O)c3c(F)c(N4CCCC4=O)c(F)cc3[nH]2)c1` [Example 27, 4-chloro-3-(5,7-difluoro-4-oxo-6-(2-oxopyrrolidin-1-yl)-1,4-dihydroquinolin-2-yl)benzonitrile] gave an EC50 [1] of 1000 to 10000 nM, an EC50 [2] of 1000 to 10000 nM and an inhibition at 0.1 µM [3] of 47%.
Work on `N#Cc1ccc(Cl)c(-c2cc(=O)c3c(F)c(Br)c(F)cc3[nH]2)c1` [Example 33, 3-(6-bromo-5,7-difluoro-4-oxo-1,4-dihydroquinolin-2-yl)-4-chlorobenzonitrile] yielded an EC50 [1] of 100 to 1000 nM and an EC50 [2] of 100 to 1000 nM.
`N#Cc1ccc(Cl)c(-c2cc(=O)c3c(F)cc(C(F)(F)F)cc3[nH]2)c1` [Example 91, 4-chloro-3-(5-fluoro-4-oxo-7-(trifluoromethyl)-1,4-dihydroquinolin-2-yl)benzonitrile] gave an EC50 [1] of 100 to 1000 nM and an EC50 [2] of 100 to 1000 nM.
In the case of `N#Cc1ccc(Cl)c(-c2[nH]c3cc(F)cc(F)c3c(=O)c2F)c1` [Example 118, 4-chloro-3-(3,5,7-trifluoro-4-oxo-1,4-dihydroquinolin-2-yl)benzonitrile], the EC50 [1] is reported as > 10000 nM and the EC50 [2] is reported as > 10000 nM.
In the case of `N#Cc1ccc(Cl)c(-c2[nH]c3cc(F)cc(F)c3c(=O)c2Cl)c1` [Example 119, 4-chloro-3-(3-chloro-5,7-difluoro-4-oxo-1,4-dihydroquinolin-2-yl)benzonitrile], the EC50 [1] is reported as > 10000 nM and the EC50 [2] is reported as > 10000 nM.
